Experimental data taken from US6495358B1, “Sulfamide and bis-sulfamide amino acid derivatives as inhibitors of proteolytic enzymes” (Wichita State University, priority 2000, dated 2002).

Columns and labels:
[1] = target: T1, human leukocyte elastase (HLE) (Homo sapiens, UniProt P08246); assay: Human leukocyte elastase (HLE) inhibition assay, Dixon plot; format: biochemical; conditions: competitive inhibition conditions, substrate MeOSuc-AAPV-pNA, 0.1 M HEPES pH 7.25, 25° C., read-out: K1 or % Inhibition (Ki), Elastase (HLE)
T1 sequence (P08246 30-247 limits assumed): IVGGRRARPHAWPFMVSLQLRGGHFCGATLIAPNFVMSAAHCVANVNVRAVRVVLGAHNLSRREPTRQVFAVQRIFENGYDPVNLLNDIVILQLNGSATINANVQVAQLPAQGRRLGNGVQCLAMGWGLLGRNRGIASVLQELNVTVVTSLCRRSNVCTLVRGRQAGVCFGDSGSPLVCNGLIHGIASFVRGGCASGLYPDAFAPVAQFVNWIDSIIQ
Source text: Screening of compounds for protease activity is known in the art. The human leukocyte elastase (HLE), cathepsin G (Cat G) and proteinase 3 (PR3) assays have each been described in detail; see, Groutas et al. Biochemistry 36:4739 (1997). Chymase assay has also been previously reported; see, Schechter, et al., J. Biol. Chem. 268:23626 (1993).
The substrates and buffers used in the assay inhibition studies with human leukocyte elastase (HLE), cathepsin G (Cat G), proteinase 3 (PR3) (Groutas, W. C., et al., Biochemistry 36:4739 (1997) and chymase (Groutas, W. C. et al., Bioorg. Med. Chem. Lett. 9:2199 (1999) were as follows: HLE, MeOSuc-AAPV-pNA, 0.1 M HEPES buffer, pH, 7.25 in 1-5% DMSO; Cat G, Suc-AAPF-pNA, 0.1 M HEPES buffer, pH 7.5; PR3, Boc-L-Ala p-mitrophenyl ester, 0.1 M phosphate buffer, pH 6.5; chymase, Suc-AAPF-pNA, 0.45 Tris buffer, 1.8 M Na Cl, pH 8.03 and 2% DMSO. All assays were carried out at 25° C. and for all enzymes the absorbance was monitored at 410 nm, except PR 3 (348 nm).
The inhibitory activity of compound 15 toward HLE was determined under competitive inhibition conditions. (Dixon, M. Biochem. J. 20 55:70-71 (1953)). Human leukocyte elastase (HLE assay has been described in detail; see, Groutas et al. Biochemistry 36:4739 (1997).

[2] = target: T2, Thermolysin (Bacillus thermoproteolyticus, UniProt P00800); assay: Thermolysin inhibition assay with N-[3-[2-Furyl]acryloyl]-Gly-L-Leu-NH2 as substrate; format: biochemical; conditions: 0.1 M Tris-HCl pH 7.2, 25° C.
T2 sequence (P00800 233-548): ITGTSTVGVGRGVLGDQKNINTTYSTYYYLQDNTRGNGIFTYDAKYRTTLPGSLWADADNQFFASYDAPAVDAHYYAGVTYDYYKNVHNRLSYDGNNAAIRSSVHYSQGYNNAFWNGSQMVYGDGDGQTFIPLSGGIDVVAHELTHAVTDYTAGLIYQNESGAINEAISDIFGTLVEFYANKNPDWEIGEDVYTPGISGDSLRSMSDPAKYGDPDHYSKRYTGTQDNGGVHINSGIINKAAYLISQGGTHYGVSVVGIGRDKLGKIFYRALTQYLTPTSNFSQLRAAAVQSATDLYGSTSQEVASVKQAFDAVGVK
Description: Thermolysin activity with or without inhibitor was measured using N-[3-[2-Furyl]acryloyl]-Gly-L-Leu-NH2 as substrate (Walsh, K. A. et al. Methods Enzymol.34:435 (1974; Nishino, N. et al. Biochemistry 17:2846 (1978). The substrate solution in 0.1 M Tris-HCl buffer (pH 7.2) containing 2% DMF was added to thermolysin in 0.1 M Tris-HCl, ph 7.2, containing 10 mM CaCl2 and the decrease in absorbance at 345 nm was monitored using a Hewlett-Packard diode array UV/VIS spectrophotometer at 25° C. Percent inhibition and/or K1 values were determined from Dixon plots (Dixon, M. Biochem, J. 55:70 (1953) at two different substrate concentrations.
The inhibitory activity of compound 20 and 30 toward thermolysin was determined under competitive inhibition conditions. Thermolysin activity with or without inhibitor was measured using N-[3-[2-Furyl]acryloyl]-Gly-L-Leu-NH2 as substrate (Walsh, K. A. et al. Methods Enzymol.34:435 (1974); Nishino, N. et al. Biochemistry 17:2846 (1978)).

CC(C)CC(C=O)N(Cc1ccccc1)S(=O)(=O)N(C)C (stereo not drawn) [Compound 15, N-benzyl-N-(1-formyl-3-methylbutyl)-N′,N′-dimethylfulfamide]
Ki [1]: 21 µM

CN(C)S(=O)(=O)N(CC(=O)NO)Cc1ccccc1 [Compound 20, N^2-benzyl-N^2-[(dimethylamino)sulfonyl]-N^1-hydroxyglycinabmide]
Ki ([2]; competitive inhibition conditions, Dixon plots at two substrate concentrations, read-out: K1 or % Inhibition (Ki), Thermolysin): 1.2 µM

CC(C)C[C@@H](C(=O)NO)N(Cc1ccccc1)S(N)(=O)=O [Compound 40]
K1 or % Inhibition (% inhibition), Thermolysin ([2]; inhibitor concentration not given): 26% inhibition
